Data on eleven compounds can be found in patent publication US4789665A, “Anthracyclines and drugs containing them” (Laboratoires Hoechst S. A., priority 1985, dated 1988).

Converted amounts (≈) assume the structure as drawn.

The subject of one test is leukemia L 1210 strain cells. The test is described as follows: cell proliferation test (colony formation, procedure of HAMBURGER and SALMON), continuous exposure. In kind it is cell-based. As to conditions: Mus musculus, L1210, read-out: IC50 (continuous exposure). The procedure: The experimental protocol was performed according to the procedure of HAMBURGER and SALMON on leukemia L 1210 strain cells. Some modifications were introduced in the procedure of HAMBURGER and SALMON, and in particular:
the conditioned medium was replaced by McCoy5A. The number of cells in a dish was reduced to 5×10^2 cells per dish on account of the high covering efficiency of leukemia L 1210. […]
In addition, parallel experiments were carried out with continuous incubation and with various concentrations of the test substance by mixing the latter with the upper layer before application.
The dishes were kept in an incubator with 5% CO2, 20% O2, at 95% relative humidity for 5 to 7 days at 37° C. After this period, the colonies having a diameter greater than 60 μm were counted with an inverted microscope.
The results were expressed as a percentage of the number of colonies formed from treated L 1210 relative to an untreated control. The coefficient of variation of repeated experiments was less than 15%.
As usually defined, the IC50 is the point on the concentration scale where inhibition reaches its midpoint. `COc1cccc2c1C(=O)c1c(O)c3c(c(O)c1C2=O)C[C@@](O)(C(C)=O)C[C@@H]3O[C@H]1C[C@H](NCC#N)[C@H](O)[C@H](C)O1` [3'-N-(cyanomethyl)daunorubicin]: the IC50 stood at 0.0028 µg/mL (≈ 0.00494 µM). With `COCCN(CC#N)[C@H]1C[C@H](O[C@H]2C[C@](O)(C(C)=O)Cc3c(O)c4c(c(O)c32)C(=O)c2c(OC)cccc2C4=O)O[C@@H](C)[C@H]1O` [3'-N-cyanomethyl-3'-N-(2-methoxyethyl)daunorubicin], the IC50 was 0.09 µg/mL (≈ 0.144 µM).

The same test, now with this note: Mus musculus, L1210; L 1210 leukemia cells, continuous incubation, colonies >60 μm counted after 5 to 7 days at 37° C; read-out: IC50 (continuous exposure).
For the compound `COCCOCCN[C@H]1C[C@H](O[C@H]2C[C@](O)(C(C)=O)Cc3c(O)c4c(c(O)c32)C(=O)c2c(OC)cccc2C4=O)O[C@@H](C)[C@H]1O` [3'-N-[2-(2-methoxyethoxy)ethyl]daunorubicin], the IC50 was found to be 0.07 µg/mL (≈ 0.111 µM).

In the case of `COc1cccc2c1C(=O)c1c(O)c3c(c(O)c1C2=O)C[C@@](O)(C(=O)CO)C[C@@H]3O[C@H]1C[C@H](N)[C@H](O)[C@H](C)O1` [DOXORUBICIN, doxorubicin, reference compound], the IC50 was 0.02 µg/mL (≈ 0.0368 µM).

As to `COCCN[C@H]1C[C@H](O[C@H]2C[C@](O)(C(C)=O)Cc3c(O)c4c(c(O)c32)C(=O)c2c(OC)cccc2C4=O)O[C@@H](C)[C@H]1O` [3'-N-(2-methoxyethyl)daunorubicin], the IC50 amounted to 0.01 µg/mL (≈ 0.0171 µM). For the compound `CCN(CC)C(=O)CN[C@H]1C[C@H](O[C@H]2C[C@](O)(C(C)=O)Cc3c(O)c4c(c(O)c32)C(=O)c2c(OC)cccc2C4=O)O[C@@H](C)[C@H]1O` [3'-N-[(N,N-diethylcarbamoyl)methyl]daunorubicin], the IC50 was 0.28 µg/mL (≈ 0.437 µM).

For the compound `CCN(CC)C(=O)CN(CC(=O)N(CC)CC)[C@H]1C[C@H](O[C@H]2C[C@](O)(C(C)=O)Cc3c(O)c4c(c(O)c32)C(=O)c2c(OC)cccc2C4=O)O[C@@H](C)[C@H]1O` [3'-N,N-bis[(N,N-diethylcarbamoyl)methyl]daunorubicin], the IC50 was found to be 0.65 µg/mL (≈ 0.862 µM).

Consider `COc1cccc2c1C(=O)c1c(O)c3c(c(O)c1C2=O)C[C@@](O)(C(C)=O)C[C@@H]3O[C@H]1C[C@H](N(CC#N)CC#N)[C@H](O)[C@H](C)O1` [3'-N,N-bis(cyanomethyl)daunorubicin], for which the IC50 came out at 0.08 µg/mL (≈ 0.132 µM). For the compound `COc1cccc2c1C(=O)c1c(O)c3c(c(O)c1C2=O)C[C@@](O)(C(C)=O)C[C@@H]3O[C@H]1C[C@H](N)[C@H](O)[C@H](C)O1` [DAUNORUBICIN, daunorubicin, reference compound], the IC50 is 0.02 µg/mL (≈ 0.0379 µM). For the compound `COCCOCCN(CCOCCOC)[C@H]1C[C@H](O[C@H]2C[C@](O)(C(C)=O)Cc3c(O)c4c(c(O)c32)C(=O)c2c(OC)cccc2C4=O)O[C@@H](C)[C@H]1O` [3'-N,N-bis[2-(2-methoxyethoxy)ethyl]daunorubicin], the IC50 amounted to 0.22 µg/mL (≈ 0.301 µM). As for `COC(=O)CN[C@H]1C[C@H](O[C@H]2C[C@](O)(C(C)=O)Cc3c(O)c4c(c(O)c32)C(=O)c2c(OC)cccc2C4=O)O[C@@H](C)[C@H]1O` [3'-N-(carbomethoxymethyl)daunorubicin], the IC50 turned out to be 0.24 µg/mL (≈ 0.4 µM).
